The values below are quoted from earlier work in US9821060B2, “Heat-sensitive nanoparticle system” (FONDAZIONE ISTITUTO ITALIANO DI TECNOLOGIA, priority 2013, dated 2017).

For this series the following is noted: in water.

With `CC(C)(N=NC(C)(C)C(=O)NCCC(=O)O)C(=O)NCCC(=O)O.O` [VA057, 2,2′Azobis-[N-(2-carboxyethyl)-2-methylpropionamide]hydrate], the “half-life temperature at 10 hours” value is 57 °C.
